These results are taken from patent US12018023B2 (NERVIANO MEDICAL SCIENCES S.R.L., priority 2018, dated 2024).

Experiment [1] deals with T1, IDH1^R132H homodimer enzyme (Homo sapiens, UniProt O75874, R132H).
T1 construct: purchased not specified
Nature of the experiment: NADPH depletion assay, IDH1 R132H. In kind it is biochemical. The procedure: (§1) IDH mutated enzyme activity converting alpha-ketoglutarate to 2-hydroxyglutaric acid is measured using a NADPH depletion assay. In the assay the remaining cofactor is measured at the end of the reaction with the addition of a catalytic excess of diaphorase and resazurin, to generate a fluorescent signal in proportion to the amount of NADPH remaining. IDH1 WT enzyme as well as mutated isoforms IDH1^R132H, IDH1^R132C, and IDH^2R172K enzymes are commercially available proteins (see e.g. Sino Biological, Abcam, Active Motif or Creative BioMart).
(§2) IDH1^R132H homodimer enzyme are diluted to 8 nM, in 10 μL of Assay Buffer (150 mM NaCl, 50 mM Tris-HCl pH 7.6, 10 mM MgCl2, 0.001% Triton X-100, 4 mM β-mercaptoethanol); 0.2 uL of test compound, previously serially diluted 1 to 3, >10 experimental points from 1 mM in DMSO, is added and the mixture is incubated for 15 minutes at room temperature. The reaction is started with the addition of 10 μL of Substrate Mix (12 uM NADPH, 3.4 mM alpha-ketoglutarate in Assay Buffer) and the mixture is incubated for 60 minutes at room temperature. The reaction is terminated with the addition of 5 μl of Detection Buffer (100 μg/mL diaphorase, 30 μM resazurin, in IX Assay Buffer), and is incubated for 15 minute before reading on a ViewLux as platereader at Ex544/Em590.

The next experiment deals with T2, IDH1^R132C (Homo sapiens, UniProt O75874, R132C).
T2 construct: purchased not specified
T2 sequence (O75874 whole entry R132C): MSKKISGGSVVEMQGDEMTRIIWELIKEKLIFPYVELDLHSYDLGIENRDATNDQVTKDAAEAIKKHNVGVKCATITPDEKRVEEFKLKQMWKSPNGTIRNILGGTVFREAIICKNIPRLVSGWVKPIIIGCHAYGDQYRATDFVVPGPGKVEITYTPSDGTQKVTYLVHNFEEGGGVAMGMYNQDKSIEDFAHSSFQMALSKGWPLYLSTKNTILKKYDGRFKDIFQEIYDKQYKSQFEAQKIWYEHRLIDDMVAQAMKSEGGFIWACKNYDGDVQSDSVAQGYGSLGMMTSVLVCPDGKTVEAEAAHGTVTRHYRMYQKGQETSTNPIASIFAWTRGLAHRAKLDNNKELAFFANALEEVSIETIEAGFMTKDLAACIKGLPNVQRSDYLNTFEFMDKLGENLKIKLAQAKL
The experiment is described as follows: NADPH depletion assay, IDH1 R132C. The class given is biochemical. The procedure:
as §1, §2
Compounds are assayed for their activity against IDH1^R132C following the same assay as above with the following modifications: IDH1^R132C and alpha-ketoglutarate final concentrations in the Assay Buffer is 2 nM and 0.14 mM, respectively.

T1 sequence (O75874 whole entry R132H): as the sequence (O75874 whole entry R132C) above, with C132H counted along it

The term IC50 denotes the concentration needed to halve the response being measured. Read a low IC50 as greater potency. Regarding `C[C@H](Nc1ncc2ccc(=O)n(CC(F)(CF)CF)c2n1)c1ccc(CN2CCC(F)(F)CC2)cc1` [cpd 107, 8-[2,3-difluoro-2-(fluoromethyl)propyl]-2-{[(1S)-1-{4-[(4,4-difluoropiperidin-1-yl)methyl]phenyl)ethyl]amino) pyrido[2,3-d]pyrimidin-7(8H)-one], the IC50 in experiment [1] is 722 nM; against IDH1^R132C it was 459 nM.
For `CC[C@H](Nc1ncc2ccc(=O)n(CC(C)(C)C)c2n1)c1ccccc1` [cpd 70, 8-(2,2-dimethylpropyl)-2-{[(1S)-1-phenylpropyl]amino}pyrido[2,3-d]pyrimidin-7(8H)-one] the same measures were 478 nM and 177 nM.
The matching figures for `C[C@H](Nc1ncc2ccc(=O)n(CC(C)(C)C)c2n1)c1ccc(C(=O)NC2CCC(F)(F)CC2)cc1` [cpd 79, N-(4,4-difluorocyclohexyl)-4-[(1S)-1-{[8-(2,2-dimethylpropyl)-7-oxo-pyrido[2,3-d]pyrimidin-2-yl]amino}ethyl]benzamide]: 529 nM and 357 nM.
For `C[C@H](Nc1ncc2ccc(=O)n(Cc3ccccc3)c2n1)c1nc(-c2ccc(Cl)cc2)no1` [cpd 53, 8-benzyl-2-({(1S)-1-[3-(4-chlorophenyl)-1,2,4-oxadiazol-5-yl]ethyl}amino)pyrido[2,3-d]pyrimidin-7(8H)-one] the same measures were 941 nM and 529 nM.
Take `C[C@H](Nc1ncc2ccc(=O)n(CC(C)(C)C)c2n1)c1ccc(C(=O)NC2CC(F)(F)C2)cc1` [cpd 85, N-(3,3-difluorocyclobutyl)-4-[(1S)-1-{[8-(2,2-dimethylpropyl)-7-oxo-pyrido[2,3-d]pyrimidin-2-yl]amino}ethyl]benzamide]: the IC50 was 1770 nM in experiment [1] and 1460 nM at IDH1^R132C.
`C[C@H](Nc1ncc2ccc(=O)n(CC(C)(C)C(N)=O)c2n1)c1ccc2ccccc2c1` [cpd 122, 2,2-dimethyl-3-[2-{[(1S)-1-(naphthalen-2-yl)ethyl]amino}-7-oxopyrido[2,3-d]pyrimidin-8(7H)-yl]propanamide]: the IC50 in experiment [1] was 717 nM; at IDH1^R132C, 386 nM.
The matching figures for `CCCn1c(=O)ccc2cnc(N[C@@H](C)c3ccc(CN4CCCCCC4)cc3)nc21` [cpd 102, 2-({(1S)-1-[4-(azepan-1-ylmethyl)phenyl]ethyl}amino)-8-propylpyrido[2,3-d]pyrimidin-7(8H)-one]: 4320 nM and 2800 nM.
For the compound `C[C@H](Nc1ncc2ccc(=O)n(CC(C)(C)C)c2n1)c1ccc(CN2CCCC2)cc1` [cpd 111, 8-(2,2-dimethylpropyl)-2-({(1S)-1-[4-(pyrrolidin-1-ylmethyl)phenyl]ethyl}amino)pyrido[2,3-d]pyrimidin-7(8H)-one], the IC50 in experiment [1] amounted to 4040 nM; against IDH1^R132C it was 1420 nM.
The matching figures for `C[C@H](Nc1ncc2ccc(=O)n(Cc3c(F)cccc3F)c2n1)c1ccc(C(=O)NC2CCOCC2)cc1` [cpd 78, 4-[(1S)-1-{[8-(2,6-difluorobenzyl)-7-oxo-pyrido[2,3-d]pyrimidin-2-yl]amino}ethyl]-N-(tetrahydro-2H-pyran-4-yl) benzamide]: 896 nM and 1380 nM.
The matching figures for `CC(C)(C)Cn1c(=O)ccc2cnc(NC3(c4ccccc4)CCC3)nc21` [cpd 43, 8-(2,2-dimethylpropyl)-2-[(1-phenylcyclobutyl)amino]pyrido[2,3-d]pyrimidin-7(8H)-one]: 1640 nM and 1050 nM.
For `C=CC(=O)N1CCN(Cc2ccc([C@H](C)Nc3nc(OCC)c4ccc(=O)n(CC(C)(C)C)c4n3)cc2)CC1` [cpd 201, 2-{[(1S)-1-{4-[(4-acryloylpiperazin-1-yl)methyl]phenyl}ethyl]amino}-8-(2,2-dimethylpropyl)-4-ethoxypyrido[2,3-d]pyrimidin-7(8H)-one] the same measures were 420 nM and 173 nM.
Consider `CCn1c(=O)ccc2cnc(N[C@@H](C)c3ccc(CN4CCN(C(=O)OC(C)(C)C)CC4)cc3)nc21` [cpd 185, tert-butyl 4-(4-{(1S)-1-[(8-ethyl-7-oxo-7,8-dihydropyrido[2,3-d]pyrimidin-2-yl)amino]ethyl}benzyl)piperazine-1-carboxylate], for which the IC50 in experiment [1] worked out at 2370 nM; at IDH1^R132C, 1270 nM.
On to `CC(Nc1ncc2ccc(=O)n(CC(C)(C)C)c2n1)C12CC3CC(CC(C3)C1)C2` (centres unmarked) [cpd 44, 8-(2,2-dimethylpropyl)-2-{[1-(tricyclo[3.3.1.1^3,7]dec-1-yl)ethyl]amino}pyrido[2,3-d]pyrimidin-7(8H)-one], for which the IC50 in experiment [1] was found to be 1090 nM; on IDH1^R132C it was 811 nM.
On to `CC(C)[C@H](C)n1c(=O)ccc2cnc(N[C@@H](C)c3ccc(N4CCNCC4)cc3)nc21` [cpd 176, 8-[(2S)-3-methylbutan-2-yl]-2-({(1S)-1-[4-(piperazin-1-yl)phenyl]ethyl}amino)pyrido[2,3-d]pyrimidin-7(8H)-one], for which the IC50 in experiment [1] turned out to be 3510 nM; against IDH1^R132C, 1910 nM.
For `C[C@H](Nc1ncc2ccc(=O)n(Cc3ccc(F)cc3C(F)(F)F)c2n1)c1ccc(CN2CCC(F)(F)CC2)cc1` [cpd 115, 2-{[(1S)-1-{4-[(4,4-difluoropiperidin-1-yl)methyl]phenyl}ethyl]amino}-8-[4-fluoro-2-(trifluoromethyl)benzyl]pyrido[2,3-d]pyrimidin-7(8H)-one], the IC50 was determined as 672 nM in experiment [1] and 825 nM on IDH1^R132C.
Take `COCCn1c(=O)ccc2cnc(N[C@@H](C)c3ccc(CN4CCC(F)(F)CC4)cc3)nc21` [cpd 114, 2-{[(1S)-1-{4-[(4,4-difluoropiperidin-1-yl)methyl]phenyl}ethyl]amino}-8-(2-methoxyethyl)pyrido[2,3-d]pyrimidin-7(8H)-one]: the half-inhibitory concentration (IC50) worked out at 2370 nM in experiment [1] and 1910 nM on IDH1^R132C.
In the case of `CC(C)[C@H](C)n1c(=O)ccc2cnc(N[C@@H](C)c3ccc(N4CCOCC4)cc3)nc21` [cpd 173, 8-[(2S)-3-methylbutan-2-yl]-2-({(1S)-1-[4-(morpholin-4-yl)phenyl]ethyl}amino)pyrido[2,3-d]pyrimidin-7(8H)-one], the 50% inhibitory concentration (IC50) in experiment [1] worked out at 575 nM; at IDH1^R132C, 144 nM.
The matching figures for `CC(C)[C@H](C)n1c(=O)ccc2cnc(N[C@@H](C)c3ccc(OC4CCNCC4)cc3)nc21` [cpd 155, 8-((S)-1,2-Dimethyl-propyl)-2-{(S)-1-[4-(piperidin-4-yloxy)-phenyl]-ethylamino}-8H-pyrido[2,3-d]pyrimidin-7-one]: 455 nM and 147 nM.
Turning to `C[C@H](Nc1ncc2ccc(=O)n(CC(C)(C)C)c2n1)c1ccc(-c2ccncc2)cc1` [cpd 131, 8-(2,2-dimethylpropyl)-2-({(1S)-1-[4-(pyridin-4-yl)phenyl]ethyl}amino)pyrido[2,3-d]pyrimidin-7(8H)-one], the IC50 was found to be 284 nM in experiment [1] and 170 nM on IDH1^R132C.
The matching figures for `C[C@H](Nc1ncc2ccc(=O)n(Cc3ccc(F)cc3F)c2n1)c1ccc(Cl)cc1` [cpd 25, 2-{[(1S)-1-(4-chlorophenyl)ethyl]amino}-8-(2,4-difluorobenzyl)pyrido[2,3-d]pyrimidin-7(8H)-one]: 1940 nM and 524 nM.
`C[C@H](Nc1ncc2ccc(=O)n(CC(C)(C)O)c2n1)c1ccc(CN2CCC(F)(F)CC2)cc1` [cpd 119, 2-{(S)-1-[4-(4,4-Difluoro-piperidin-1-ylmethyl)-phenyl]-ethylamino}-8-(2-hydroxy-2-methyl-propyl)-8H-pyrido [2,3-d]pyrimidin-7-one]: the half-inhibitory concentration (IC50) in experiment [1] was 2230 nM; at IDH1^R132C, 1160 nM.
The matching figures for `CC(C)(C)Cn1c(=O)ccc2cnc(NC3(c4ccccc4)CC3)nc21` [cpd 42, 8-(2,2-dimethylpropyl)-2-[(1-phenylcyclopropyl)amino]pyrido[2,3-d]pyrimidin-7(8H)-one]: 1380 nM and 951 nM.
The matching figures for `COC(=O)c1ccc([C@H](C)Nc2ncc3ccc(=O)n(Cc4cc(F)cc(F)c4)c3n2)cc1` [cpd 7, methyl 4-[(1S)-1-{[8-(3,5-difluorobenzyl)-7-oxo-pyrido[2,3-d]pyrimidin-2-yl]amino}ethyl]benzoate]: 2960 nM and 1410 nM.
The matching figures for `CCn1c(=O)ccc2cnc(N[C@@H](C)c3ccc(C(=O)N4CCN(C(=O)OC(C)(C)C)CC4)cc3)nc21` [cpd 189, tert-butyl 4-(4-{(1S)-1-[(8-ethyl-7-oxo-7,8-dihydropyrido[2,3-d]pyrimidin-2-yl)amino]ethyl}benzoyl)piperazine-1-carboxylate]: 3770 nM and 811 nM.
Consider `CCCn1c(=O)ccc2cnc(N[C@@H](C)c3ccc(CN4CCN(C(C)=O)CC4)cc3)nc21` [cpd 103, 2-{[(1S)-1-{4-[(4-acetylpiperazin-1-yl)methyl]phenyl}ethyl]amino}-8-propylpyrido[2,3-d]pyrimidin-7(8H)-one], for which the IC50 in experiment [1] came to 1590 nM; against IDH1^R132C, 634 nM.
